The supplement of paper PMC11061612

Assays:
Test in all cases: Bliss excess, mean over the matrix (fraction); higher = more synergy
[1] = tested on: 639-V (Bladder Carcinoma)
Method in brief: (§1)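 Cell lines grown in DMEM/F12 or RPMI with 10% FBS were plated in 1536-well plates and held 24 hours at 37°C, 5% CO2 before 72 hours of exposure to two-drug dose matrices, with DMSO typically at 0.2%. CellTiter-Glo 2.0 luminescence gave viability, which was converted to inhibition. Vehicle wells were set to 0 and blank wells to 1. Combination Emax is the second-highest inhibition in the matrix, and Bliss excess is the observed combination effect minus the expected EA + EB − EA·EB, where EA and EB are the single-agent effects.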

[2] = tested on: CAPAN-1 (Pancreatic Carcinoma)
Method in brief: as §1

[3] = tested on: EN (Endometrial Carcinoma)
Method in brief: as §1

[4] = tested on: HCC-15 (Squamous Cell Lung Carcinoma)
Method in brief: as §1

[5] = tested on: HDLM-2 (Hodgkin's Lymphoma)
Method in brief: as §1

[6] = tested on: HO-1-u-1 (Oral Cavity Carcinoma)
Method in brief: as §1

[7] = tested on: Hs-633T (Other Solid Carcinomas)
Method in brief: as §1

[8] = tested on: K5 (Thyroid Gland Carcinoma)
Method in brief: as §1

[9] = tested on: LoVo (Colorectal Carcinoma)
Method in brief: as §1

[10] = tested on: MHH-PREB-1 (B-Cell Non-Hodgkin's Lymphoma)
Method in brief: as §1

Mewo (Melanoma) = tested on: Mewo (Melanoma)
Method in brief: as §1

NB14 (Neuroblastoma) = tested on: NB14 (Neuroblastoma)
Method in brief: as §1

NCI-H2461 (Mesothelioma) = tested on: NCI-H2461 (Mesothelioma)
Method in brief: as §1

NCI-H2795 (Mesothelioma) = tested on: NCI-H2795 (Mesothelioma)
Method in brief: as §1

[11] = tested on: NCI-H69 (Small Cell Lung Carcinoma)
Method in brief: as §1

[12] = tested on: RPMI-6666 (Non-Cancerous)
Method in brief: as §1

SH-4 (Melanoma) = tested on: SH-4 (Melanoma)
Method in brief: as §1

[13] = tested on: SK-OV-3 (Ovarian Carcinoma)
Method in brief: as §1

[14] = tested on: SW626 (Colorectal Carcinoma)
Method in brief: as §1

[15] = tested on: UMC-11 (Other Solid Carcinomas)
Method in brief: as §1

Question: For `CCc1c2c(nc3ccc(O)cc13)-c1cc3c(c(=O)n1C2)COC(=O)[C@]3(O)CC` [SN-38] + CN(C)CCCOc1ccc(-c2ccc3ncc4c(c3c2)n(C2CCOCC2)c(=O)n4C)cn1 [AZD0156] (first compound max 0.3 µM, 7x7, partner max 1 µM), which Bliss excess [1] is on record?
Answer: 0.068

Question: And the Bliss excess [2]?
Answer: -0.0341

Question: And the Bliss excess [3]?
Answer: -0.0346

Question: What about the Bliss excess [4] of the same molecule?
Answer: 0.16

Question: What about the Bliss excess [5] of the same molecule?
Answer: -0.0809

Question: And the Bliss excess [6]?
Answer: 0.0393

Question: What about the Bliss excess [7] of the same molecule?
Answer: 0.153

Question: What about the Bliss excess [8] of the same molecule?
Answer: -0.0797

Question: And the Bliss excess [9]?
Answer: 0.0135

Question: What about the Bliss excess [10] of the same molecule?
Answer: 0.0408

Question: And the Bliss excess (Mewo (Melanoma))?
Answer: -0.0722

Question: And the Bliss excess (NB14 (Neuroblastoma))?
Answer: 0.0191

Question: What about the Bliss excess (NCI-H2461 (Mesothelioma)) of the same molecule?
Answer: -0.0236

Question: And the Bliss excess (NCI-H2795 (Mesothelioma))?
Answer: 0.0334

Question: What about the Bliss excess [11] of the same molecule?
Answer: -0.0197

Question: What about the Bliss excess [12] of the same molecule?
Answer: -0.0196

Question: What about the Bliss excess (SH-4 (Melanoma)) of the same molecule?
Answer: -0.0552

Question: And the Bliss excess [13]?
Answer: -0.0132

Question: What about the Bliss excess [14] of the same molecule?
Answer: -0.0379

Question: What about the Bliss excess [15] of the same molecule?
Answer: 0.0224

Question: Which results are given for `C[C@@H](c1ccc2nccn2c1)n1nnc2ncc(-c3cnn(C)c3)nc21` [Savolitinib] + CC1(C)CCC(CN2CCN(c3ccc(C(=O)NS(=O)(=O)c4ccc(NCC5CCOCC5)c([N+](=O)[O-])c4)c(Oc4cnc5[nH]ccc5c4)c3)CC2)=C(c2ccc(Cl)cc2)C1 [Venetoclax] (first compound max 1 µM, 7x7, partner max 1 µM)?
Answer: Bliss excess [1]: -0.112; Bliss excess [2]: -0.0613; Bliss excess [3]: -0.0643; Bliss excess [4]: -0.0229; Bliss excess [5]: -0.0465; Bliss excess [6]: -0.039; Bliss excess [7]: -0.0383; Bliss excess [8]: -0.0374; Bliss excess [9]: -0.0394; Bliss excess [10]: -0.0286; Bliss excess (Mewo (Melanoma)): -0.0647; Bliss excess (NB14 (Neuroblastoma)): -0.0082; Bliss excess (NCI-H2461 (Mesothelioma)): -0.0641; Bliss excess (NCI-H2795 (Mesothelioma)): 0.0032; Bliss excess [11]: -0.0144; Bliss excess [12]: -0.0557; Bliss excess (SH-4 (Melanoma)): -0.0535; Bliss excess [13]: -0.0511; Bliss excess [14]: -0.066; Bliss excess [15]: -0.0303

Question: `C[C@@H](c1ccc2nccn2c1)n1nnc2ncc(-c3cnn(C)c3)nc21` [Savolitinib] + Cc1c2c(nn1C)CSCc1cc(n(C)n1)CSc1cc(c3ccccc3c1)OCCCc1c(C(=O)O)n(C)c3c-2c(Cl)ccc13 [AZD5991] (first compound max 1 µM, 7x7, partner max 1 µM) was tested. Which Bliss excess [1] did it give?
Answer: -0.111

Question: And the Bliss excess [2]?
Answer: -0.0702

Question: And the Bliss excess [3]?
Answer: -0.0027

Question: What about the Bliss excess [4] of the same molecule?
Answer: -0.0349

Question: And the Bliss excess [5]?
Answer: -0.0099

Question: What about the Bliss excess [6] of the same molecule?
Answer: -0.034

Question: And the Bliss excess [7]?
Answer: -0.0551

Question: What about the Bliss excess [8] of the same molecule?
Answer: -0.0085

Question: What about the Bliss excess [9] of the same molecule?
Answer: -0.0331

Question: And the Bliss excess [10]?
Answer: -0.0375

Question: What about the Bliss excess (Mewo (Melanoma)) of the same molecule?
Answer: -0.0237

Question: What about the Bliss excess (NB14 (Neuroblastoma)) of the same molecule?
Answer: -0.0411

Question: And the Bliss excess (NCI-H2461 (Mesothelioma))?
Answer: -0.048

Question: And the Bliss excess (NCI-H2795 (Mesothelioma))?
Answer: 0.008

Question: And the Bliss excess [11]?
Answer: -0.0269

Question: And the Bliss excess [12]?
Answer: -0.0329

Question: What about the Bliss excess (SH-4 (Melanoma)) of the same molecule?
Answer: -0.0252

Question: And the Bliss excess [13]?
Answer: -0.0556

Question: What about the Bliss excess [14] of the same molecule?
Answer: 0.0147

Question: And the Bliss excess [15]?
Answer: -0.0026

Question: What does the source list for `Cn1cnc2c(F)c(Nc3ccc(Br)cc3Cl)c(C(=O)NOCCO)cc21` [Selumetinib] + C=CCn1c(=O)c2cnc(Nc3ccc(N4CCN(C)CC4)cc3)nc2n1-c1cccc(C(C)(C)O)n1 [AZD1775] (first compound max 10 µM, partner max 1 µM)?
Answer: Bliss excess [1]: -0.0207; Bliss excess [2]: -0.0399; Bliss excess [3]: -0.126; Bliss excess [4]: 0.0018; Bliss excess [5]: -0.092; Bliss excess [6]: 0.0454; Bliss excess [7]: -0.0094; Bliss excess [8]: -0.0375; Bliss excess [9]: -0.0105; Bliss excess [10]: -0.0531; Bliss excess (Mewo (Melanoma)): -0.0304; Bliss excess (NB14 (Neuroblastoma)): -0.0193; Bliss excess (NCI-H2461 (Mesothelioma)): -0.0676; Bliss excess (NCI-H2795 (Mesothelioma)): -0.0298; Bliss excess [11]: -0.0312; Bliss excess [12]: 0.023; Bliss excess (SH-4 (Melanoma)): -0.0546; Bliss excess [13]: -0.0656; Bliss excess [14]: -0.0577; Bliss excess [15]: 0.0137

Question: How did the Bliss excess [1] turn out when `Cn1cnc2c(F)c(Nc3ccc(Br)cc3Cl)c(C(=O)NOCCO)cc21` [Selumetinib] + CC(C)n1c(=O)n(C)c2cnc3cc(F)c(-c4ccc(OCCCN5CCCCC5)nc4)cc3c21 [AZD1390] (first compound max 10 µM, 7x7, partner max 0.3 µM) was run?
Answer: -0.0783

Question: What about the Bliss excess [2] of the same molecule?
Answer: -0.0537

Question: What about the Bliss excess [3] of the same molecule?
Answer: -0.0086

Question: And the Bliss excess [4]?
Answer: 0.0148

Question: What about the Bliss excess [5] of the same molecule?
Answer: -0.0509

Question: What about the Bliss excess [6] of the same molecule?
Answer: -0.0387

Question: And the Bliss excess [7]?
Answer: 0.0303

Question: What about the Bliss excess [8] of the same molecule?
Answer: -0.021

Question: What about the Bliss excess [9] of the same molecule?
Answer: -0.0325

Question: And the Bliss excess [10]?
Answer: -0.0218

Question: What about the Bliss excess (Mewo (Melanoma)) of the same molecule?
Answer: -0.0086

Question: And the Bliss excess (NB14 (Neuroblastoma))?
Answer: 0.0021

Question: What about the Bliss excess (NCI-H2461 (Mesothelioma)) of the same molecule?
Answer: -0.0377

Question: What about the Bliss excess (NCI-H2795 (Mesothelioma)) of the same molecule?
Answer: -0.0439

Question: What about the Bliss excess [11] of the same molecule?
Answer: -0.0305

Question: And the Bliss excess [12]?
Answer: -0.0234

Question: And the Bliss excess (SH-4 (Melanoma))?
Answer: -0.0993

Question: And the Bliss excess [13]?
Answer: -0.0088

Question: What about the Bliss excess [14] of the same molecule?
Answer: -0.0121

Question: What about the Bliss excess [15] of the same molecule?
Answer: -0.0422

Question: `Cn1cnc2c(F)c(Nc3ccc(Br)cc3Cl)c(C(=O)NOCCO)cc21` [Selumetinib] + CCN(CCO)CCCOc1ccc2c(Nc3cc(CC(=O)Nc4cccc(F)c4)[nH]n3)ncnc2c1 [AZD2811] (first compound max 10 µM, 7x7, partner max 1 µM) was tested. Which Bliss excess [1] did it give?
Answer: -0.0438

Question: What about the Bliss excess [2] of the same molecule?
Answer: -0.0209

Question: And the Bliss excess [3]?
Answer: -0.0862

Question: What about the Bliss excess [4] of the same molecule?
Answer: -0.03

Question: And the Bliss excess [5]?
Answer: -0.0267

Question: And the Bliss excess [6]?
Answer: 0.0038

Question: What about the Bliss excess [7] of the same molecule?
Answer: 0.0395

Question: What about the Bliss excess [8] of the same molecule?
Answer: 0.0018

Question: What about the Bliss excess [9] of the same molecule?
Answer: 0.0139

Question: And the Bliss excess [10]?
Answer: -0.0203

Question: And the Bliss excess (Mewo (Melanoma))?
Answer: 0.0389

Question: What about the Bliss excess (NB14 (Neuroblastoma)) of the same molecule?
Answer: -0.0491

Question: And the Bliss excess (NCI-H2461 (Mesothelioma))?
Answer: -0.0026

Question: And the Bliss excess (NCI-H2795 (Mesothelioma))?
Answer: -0.0238

Question: What about the Bliss excess [11] of the same molecule?
Answer: -0.056

Question: What about the Bliss excess [12] of the same molecule?
Answer: 0.0696

Question: And the Bliss excess (SH-4 (Melanoma))?
Answer: -0.0324

Question: And the Bliss excess [13]?
Answer: -0.0798

Question: And the Bliss excess [14]?
Answer: 0.025

Question: What about the Bliss excess [15] of the same molecule?
Answer: -0.0446

Question: What does the source list for `Cn1cnc2c(F)c(Nc3ccc(Br)cc3Cl)c(C(=O)NOCCO)cc21` [Selumetinib] + C[C@@H]1COCCN1C2=NC(=NC(=C2)C3(CC3)[S@](=N)(=O)C)C4=C5C=CNC5=NC=C4 [AZD6738] (first compound max 10 µM, 7x7, partner max 10 µM)?
Answer: Bliss excess [1]: 0.0585; Bliss excess [2]: 0.0147; Bliss excess [3]: -0.0228; Bliss excess [4]: 0.0787; Bliss excess [5]: -0.0422; Bliss excess [6]: 0.014; Bliss excess [7]: -0.0012; Bliss excess [8]: 0.045; Bliss excess [9]: -0.0381; Bliss excess [10]: -0.0416; Bliss excess (Mewo (Melanoma)): -0.0236; Bliss excess (NB14 (Neuroblastoma)): -0.0232; Bliss excess (NCI-H2461 (Mesothelioma)): -0.026; Bliss excess (NCI-H2795 (Mesothelioma)): -0.0239; Bliss excess [11]: -0.0686; Bliss excess [12]: -0.0157; Bliss excess (SH-4 (Melanoma)): -0.0145; Bliss excess [13]: -0.0424; Bliss excess [14]: 0.0756; Bliss excess [15]: 0.0001

Question: Which results are given for `CC(=O)Nc1cccc(-n2c(=O)n(C3CC3)c(=O)c3c(Nc4ccc(I)cc4F)n(C)c(=O)c(C)c32)c1` [Trametinib] + Cc1nc(-c2cn3c(n2)-c2ccc(-c4cnn(C(C)(C)C(N)=O)c4)cc2OCC3)n(C(C)C)n1 [Taselisib] (first compound max 1 µM, 7x7, partner max 10 µM)?
Answer: Bliss excess [1]: 0.068; Bliss excess [2]: 0.129; Bliss excess [3]: 0.0161; Bliss excess [4]: 0.187; Bliss excess [5]: 0.0406; Bliss excess [6]: 0.0754; Bliss excess [7]: 0.191; Bliss excess [8]: 0.0183; Bliss excess [9]: -0.0092; Bliss excess [10]: 0.0277; Bliss excess (Mewo (Melanoma)): 0.0975; Bliss excess (NB14 (Neuroblastoma)): 0.0702; Bliss excess (NCI-H2461 (Mesothelioma)): 0.0312; Bliss excess (NCI-H2795 (Mesothelioma)): 0.0749; Bliss excess [11]: -0.0257; Bliss excess [12]: 0.0351; Bliss excess (SH-4 (Melanoma)): 0.0172; Bliss excess [13]: 0.0582; Bliss excess [14]: 0.0644; Bliss excess [15]: 0.0075
